From ChEMBL document CHEMBL4196079, “Molecular interaction of novel benzothiazolyl triazolium analogues with calf thymus DNA and HSA-their biological investigation as potent antimicrobial agents” (Eur J Med Chem, 2018)
Converted amounts (≈) assume the structure as drawn.

Assays:
[1] = system: Staphylococcus aureus; assay: Antibacterial activity against methicillin-resistant Staphylococcus aureus N315 after 24 hrs by NCCLS micro broth dilution method; assay type: functional; conditions: N315, 24 h
[2] = system: Staphylococcus aureus; assay: Antibacterial activity against Staphylococcus aureus ATCC 25923 after 24 hrs by NCCLS micro broth dilution method; assay type: functional; conditions: ATCC 25923, 24 h
[3] = system: Bacillus subtilis; assay: Antibacterial activity against Bacillus subtilis ATCC 21216 after 24 hrs by NCCLS micro broth dilution method; assay type: functional; conditions: ATCC 21216, 24 h
[4] = system: Micrococcus luteus; assay: Antibacterial activity against Micrococcus luteus ATCC 4698 after 24 hrs by micro broth dilution method; assay type: functional; conditions: ATCC 4698, 24 h
[5] = system: Escherichia coli; assay: Antibacterial activity against Escherichia coli DH52 after 24 hrs by NCCLS micro broth dilution method; assay type: functional; conditions: DH52, 24 h
[6] = system: Escherichia coli; assay: Antibacterial activity against Escherichia coli JM109 after 24 hrs by NCCLS micro broth dilution method; assay type: functional; conditions: JM109, 24 h
[7] = system: Shigella dysenteriae; assay: Antibacterial activity against Shigella dysenteriae after 24 hrs by NCCLS micro broth dilution method; assay type: functional
[8] = system: Pseudomonas aeruginosa; assay: Antibacterial activity against Pseudomonas aeruginosa ATCC 27853 after 24 hrs by NCCLS micro broth dilution method; assay type: functional; conditions: ATCC 27853, 24 h
[9] = system: Salmonella typhi; assay: Antibacterial activity against Salmonella typhi after 24 hrs by NCCLS micro broth dilution method; assay type: functional, Salmonella enterica subsp. enterica serovar Typhi; conditions: Salmonella enterica
[10] = system: Bacillus; assay: Antibacterial activity against Bacillus proteus ATCC 13315 after 24 hrs by NCCLS micro broth dilution method; assay type: functional; conditions: ATCC 13315, 24 h
[11] = system: Candida albicans; assay: Antifungal activity against Candida albicans ATCC 76615 after 24 hrs by NCCLS micro broth dilution method; assay type: functional; conditions: ATCC 76615, 24 h
[12] = system: Pichia norvegensis; assay: Antifungal activity against Candida mycoderma after 24 hrs by NCCLS micro broth dilution method; assay type: functional
[13] = system: Cyberlindnera jadinii; assay: Antifungal activity against Candida utilis after 24 hrs by NCCLS micro broth dilution method; assay type: functional; conditions: Williopsis jadinii
[14] = system: Aspergillus flavus; assay: Antifungal activity against Aspergillus flavus after 24 hrs by NCCLS micro broth dilution method; assay type: functional
[15] = system: Saccharomyces cerevisiae; assay: Antifungal activity against Saccharomyces cerevisiae after 24 hrs by NCCLS micro broth dilution method; assay type: functional
[16] = system: MDA-MB-231; assay: Cytotoxicity against human MDA-MB-231 cells after 24 hrs by MTT assay; assay type: cell-based; conditions: MDA-MB-231, 24 h
[17] = system: Saccharomyces cerevisiae; assay: Potency index, ratio of fluconazole MIC to compound MIC for antifungal activity against Saccharomyces cerevisiae; assay type: functional
[18] = system: Calf thymus DNA; assay: Inhibition of neutral red binding to calf thymus DNA by UV-Visible absorption spectroscopy; assay type: nucleic-acid assay; conditions: Bos taurus
[19] = molecular target: T1, Albumin (Homo sapiens, UniProt P02768); assay: Binding affinity to HSA assessed as Stern-Volmer quenching constant at pH 7.3 at 286 K by fluorescence assay; assay type: ADME; conditions: isolated protein
[20] = molecular target: T1, Albumin; assay: Binding affinity to HSA assessed as Stern-Volmer quenching constant at pH 7.3 at 303 K by fluorescence assay; assay type: ADME; conditions: isolated protein
[21] = molecular target: T1, Albumin; assay: Binding affinity to HSA assessed as Stern-Volmer quenching constant at pH 7.3 at 310 K by fluorescence assay; assay type: ADME; conditions: isolated protein
[22] = molecular target: T1, Albumin; assay: Binding affinity to HSA assessed as biomolecular quenching rate constant at pH 7.3 at 286 K by fluorescence assay; assay type: ADME; conditions: isolated protein
[23] = molecular target: T1, Albumin; assay: Binding affinity to HSA assessed as biomolecular quenching rate constant at pH 7.3 at 303 K by fluorescence assay; assay type: ADME; conditions: isolated protein
[24] = molecular target: T1, Albumin; assay: Binding affinity to HSA assessed as biomolecular quenching rate constant at pH 7.3 at 310 K by fluorescence assay; assay type: ADME; conditions: isolated protein
[25] = molecular target: T1, Albumin; assay: Binding affinity to HSA assessed as change in enthalpy at 286 K by Van't hoff plot analysis; assay type: ADME; conditions: isolated protein
[26] = molecular target: T1, Albumin; assay: Binding affinity to HSA assessed as change in free energy at 286 K by Van't hoff plot analysis; assay type: ADME; conditions: isolated protein
[27] = molecular target: T1, Albumin; assay: Binding affinity to HSA assessed as change in free energy at 303 K by Van't hoff plot analysis; assay type: ADME; conditions: isolated protein
[28] = molecular target: T1, Albumin; assay: Binding affinity to HSA assessed as change in free energy at 310 K by Van't hoff plot analysis; assay type: ADME; conditions: isolated protein
[29] = molecular target: T1, Albumin; assay: Binding affinity to HSA assessed as change in entropy at 286 K by Van't hoff plot analysis; assay type: ADME; conditions: isolated protein

T1 sequence (P02768 whole entry): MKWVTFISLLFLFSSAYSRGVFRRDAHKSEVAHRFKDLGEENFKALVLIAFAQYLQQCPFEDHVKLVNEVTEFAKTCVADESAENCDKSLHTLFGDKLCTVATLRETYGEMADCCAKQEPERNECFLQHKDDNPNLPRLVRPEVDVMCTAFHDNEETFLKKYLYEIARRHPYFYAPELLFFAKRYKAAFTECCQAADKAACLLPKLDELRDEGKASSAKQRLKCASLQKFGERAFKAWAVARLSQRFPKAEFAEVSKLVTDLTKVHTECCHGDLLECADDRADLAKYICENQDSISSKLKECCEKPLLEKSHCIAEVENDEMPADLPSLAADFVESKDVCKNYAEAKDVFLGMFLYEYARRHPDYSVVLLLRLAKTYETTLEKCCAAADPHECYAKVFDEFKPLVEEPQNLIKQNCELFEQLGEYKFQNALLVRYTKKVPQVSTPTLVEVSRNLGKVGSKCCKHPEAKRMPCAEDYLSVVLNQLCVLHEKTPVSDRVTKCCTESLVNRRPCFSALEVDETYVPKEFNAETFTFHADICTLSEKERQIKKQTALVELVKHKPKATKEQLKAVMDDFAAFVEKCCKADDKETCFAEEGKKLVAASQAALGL

CCOc1ccc2c(c1)sc1nc(-c3ccccc3)c(COCc3cn(Cc4cccc(F)c4)nn3)n12
MIC [1]: 16 µg/mL (≈ 31.2 µM) | MIC [2]: 128 µg/mL (≈ 249 µM) | MIC [3]: 128 µg/mL (≈ 249 µM) | MIC [4]: 128 µg/mL (≈ 249 µM) | MIC [5]: 16 µg/mL (≈ 31.2 µM) | MIC [6]: 128 µg/mL (≈ 249 µM) | MIC [7]: 128 µg/mL (≈ 249 µM) | MIC [8]: 64 µg/mL (≈ 125 µM) | MIC [9]: 32 µg/mL (≈ 62.3 µM) | MIC [10]: 64 µg/mL (≈ 125 µM) | MIC [11]: 8 µg/mL (≈ 15.6 µM) | MIC [12]: 16 µg/mL (≈ 31.2 µM) | MIC [13]: 16 µg/mL (≈ 31.2 µM) | MIC [14]: 64 µg/mL (≈ 125 µM) | MIC [15]: 32 µg/mL (≈ 62.3 µM) | IC50 [16]: < 100 µg/mL

CCCCCCn1cc(COCc2c(-c3ccccc3)nc3sc4ccccc4n23)nn1
MIC [1]: 16 µg/mL (≈ 35.9 µM) | MIC [2]: 8 µg/mL (≈ 18 µM) | MIC [3]: 16 µg/mL (≈ 35.9 µM) | MIC [4]: 2 µg/mL (≈ 4.49 µM) | MIC [5]: 32 µg/mL (≈ 71.8 µM) | MIC [6]: 32 µg/mL (≈ 71.8 µM) | MIC [7]: 2 µg/mL (≈ 4.49 µM) | MIC [8]: 16 µg/mL (≈ 35.9 µM) | MIC [9]: 16 µg/mL (≈ 35.9 µM) | MIC [10]: 8 µg/mL (≈ 18 µM) | MIC [11]: 8 µg/mL (≈ 18 µM) | MIC [12]: 32 µg/mL (≈ 71.8 µM) | MIC [13]: 4 µg/mL (≈ 8.98 µM) | MIC [14]: 32 µg/mL (≈ 71.8 µM) | MIC [15]: 8 µg/mL (≈ 18 µM) | Ratio [17]: 2

CCCCCn1cc(COCc2c(-c3ccccc3)nc3sc4cc(OCC)ccc4n23)nn1
MIC [1]: 32 µg/mL (≈ 67.3 µM) | MIC [2]: 128 µg/mL (≈ 269 µM) | MIC [3]: 64 µg/mL (≈ 135 µM) | MIC [4]: 128 µg/mL (≈ 269 µM) | MIC [5]: 128 µg/mL (≈ 269 µM) | MIC [6]: 128 µg/mL (≈ 269 µM) | MIC [7]: 128 µg/mL (≈ 269 µM) | MIC [8]: 128 µg/mL (≈ 269 µM) | MIC [9]: 128 µg/mL (≈ 269 µM) | MIC [10]: 64 µg/mL (≈ 135 µM) | MIC [11]: 8 µg/mL (≈ 16.8 µM) | MIC [12]: 4 µg/mL (≈ 8.41 µM) | MIC [13]: 1 µg/mL (≈ 2.1 µM) | MIC [14]: 32 µg/mL (≈ 67.3 µM) | MIC [15]: 8 µg/mL (≈ 16.8 µM) | Ratio [17]: 2

CCOc1ccc2c(c1)sc1nc(-c3ccccc3)c(COCc3cn(Cc4ccc(Cl)c(Cl)c4)nn3)n12
MIC [1]: 16 µg/mL (≈ 28.3 µM) | MIC [2]: 16 µg/mL (≈ 28.3 µM) | MIC [3]: 4 µg/mL (≈ 7.09 µM) | MIC [4]: 2 µg/mL (≈ 3.54 µM) | MIC [5]: 32 µg/mL (≈ 56.7 µM) | MIC [6]: 1 µg/mL (≈ 1.77 µM) | MIC [7]: 16 µg/mL (≈ 28.3 µM) | MIC [8]: 4 µg/mL (≈ 7.09 µM) | MIC [9]: 8 µg/mL (≈ 14.2 µM) | MIC [10]: 8 µg/mL (≈ 14.2 µM) | MIC [11]: 8 µg/mL (≈ 14.2 µM) | MIC [12]: 4 µg/mL (≈ 7.09 µM) | MIC [13]: 2 µg/mL (≈ 3.54 µM) | MIC [14]: 64 µg/mL (≈ 113 µM) | MIC [15]: 16 µg/mL (≈ 28.3 µM) | inhibition [18]: Dose-dependent effect | KSV [19]: 4.04 ×10⁴ L/mol | KSV [20]: 3.54 ×10⁴ L/mol | KSV [21]: 3.42 ×10⁴ L/mol | Kq [22]: 6.36 ×10¹² L/mol/s | Kq [23]: 5.53 ×10¹² L/mol/s | Kq [24]: 5.34 ×10¹² L/mol/s | deltaH [25]: -1.54 kcal/mol | deltaG [26]: -5.9113 kcal/mol | deltaG [27]: -5.9183 kcal/mol | deltaG [28]: -6.0194 kcal/mol | deltaS [29]: 60.5 J/mol.K

CCOc1ccc2c(c1)sc1nc(-c3ccccc3)c(COCc3cn(Cc4ccc(Cl)cc4Cl)nn3)n12
MIC [1]: 64 µg/mL (≈ 113 µM) | MIC [2]: 64 µg/mL (≈ 113 µM) | MIC [3]: 32 µg/mL (≈ 56.7 µM) | MIC [4]: 64 µg/mL (≈ 113 µM) | MIC [5]: 64 µg/mL (≈ 113 µM) | MIC [6]: 64 µg/mL (≈ 113 µM) | MIC [7]: 32 µg/mL (≈ 56.7 µM) | MIC [8]: 32 µg/mL (≈ 56.7 µM) | MIC [9]: 64 µg/mL (≈ 113 µM) | MIC [10]: 16 µg/mL (≈ 28.3 µM) | MIC [11]: 1 µg/mL (≈ 1.77 µM) | MIC [12]: 4 µg/mL (≈ 7.09 µM) | MIC [13]: 8 µg/mL (≈ 14.2 µM) | MIC [14]: 64 µg/mL (≈ 113 µM) | MIC [15]: 32 µg/mL (≈ 56.7 µM)
